In ChEMBL document CHEMBL6178021, “Optimization of Tambjamines Active against Multiple Stages of Malaria Parasites” (J Med Chem, 2025):
Active and inactive are the calls of the source. The calls are words filed in the database; no cut-off is given here.

Legend:
[1] = test system: HepG2; experiment: (§1) Cytotoxicity against human HepG2 cells assessed as cell viability measured after 48 hrs by MTT assay; assay type: toxicity, cell-based; conditions: hepg2
[2] = test system: Plasmodium falciparum; experiment: Antiplasmodial activity against asexual blood-stage Plasmodium falciparum Tm90-C2B using 2% haematocrit and 0.2% parasitemia assessed as reduction in fluorescence measured after 72 hrs by Malaria SYBR Green I-based Fluorescence (MSF) assay; assay type: functional, organism-based
[3] = molecular target: Voltage-gated inwardly rectifying potassium channel KCNH2 (Homo sapiens, UniProt Q12809); experiment: Inhibition of hERG expressed in CHO cells by Whole cell patch clamp assay; assay type: toxicity, cell-based
[4] = test system: Plasmodium falciparum; experiment: Anti-plasmodial activity against Plasmodium falciparum 3D7 infected in erythrocytes assessed as Lag phase (time to observe the maximal killing effect of the drug) at 1.188 uM; assay type: functional
[5] = Toxicity in Albino C57BL/6 mouse inoculated with Luciferase-expressing Plasmodium berghei sporozoites at 40 mg/kg, po; assay type: organism-based; conditions: in vivo
[6] = test system: Plasmodium falciparum; experiment: Anti-plasmodial activity against Plasmodium falciparum Dd2 assessed as growth inhibition measured after 72 hrs by Malaria SYBR Green I-based Fluorescence (MSF) assay; assay type: functional, organism-based; conditions: Dd2, 72 h
[7] = test system: Plasmodium berghei; experiment: Anti-malarial activity against Luciferase-expressing Plasmodium berghei sporozoites inoculated in Albino C57BL/6 mouse malaria model assessed as reduction in parasites in liver at 40 mg/kg, po by measuring bioluminescence signal measured after 72 hrs relative to control; assay type: functional; set-up: scale not given: the % may be the effect or the level left
[8] = Metabolic stability in mouse liver microsomes assessed as half life measured up to 60 mins by LC/MS analysis; assay type: ADME, Microsome
[9] = Chemical stability of the compound assessed as half life in PBS buffer at pH 6.6 to 9; assay type: physicochemical
[10] = Toxicity in CF1 mouse infected with erythrocytic Plasmodium yoelii MRA-428 assessed as adverse event at 10 to 80 mg/kg, po once daily for 4 days measured on day 28 day; assay type: organism-based; conditions: in vivo, 96 h, dose 10-80 mg/kg, time 4 day
[11] = test system: Plasmodium berghei; experiment: Anti-malarial activity against Luciferase-expressing Plasmodium berghei sporozoites inoculated in Albino C57BL/6 mouse malaria model assessed as reduction in parasites in liver at 40 mg/kg, po by measuring bioluminescence signal measured after 48 hrs relative to control; assay type: functional; set-up: scale not given: the % may be the effect or the level left
[12] = test system: Plasmodium falciparum; experiment: Anti-plasmodial activity against ART-resistant Plasmodium falciparum DR1 assessed as growth inhibition measured after 72 hrs by Malaria SYBR Green I-based Fluorescence (MSF) assay; assay type: functional, organism-based; conditions: DR1, 72 h
[13] = test system: Plasmodium falciparum; experiment: Anti-plasmodial activity against ART-resistant Plasmodium falciparum DR4 assessed as growth inhibition measured after 72 hrs by Malaria SYBR Green I-based Fluorescence (MSF) assay; assay type: functional, organism-based; conditions: DR4, 72 h
[14] = AUCextrap (extrapolated from the last observed time point) in ICR-CD1 mouse plasma at 40 mg/kg, po; assay type: ADME, organism-based; conditions: in vivo
[15] = Apparent oral clearance in ICR-CD1 mouse plasma at 40 mg/kg, po; assay type: ADME, organism-based; conditions: in vivo
[16] = test system: Plasmodium yoelii; experiment: Antimalarial activity against erythrocytic Plasmodium yoelii MRA-428 infected in CF1 mouse assessed as cured mouse at 80 mg/kg, po once daily for 4 days measured on day 28 day; assay type: functional, organism-based; conditions: time 4.0 day
[17] = in vitro; conditions: mouse, liver microsomes
[18] = test system: Plasmodium falciparum; experiment: microbe, parasite or virus in culture; conditions: Dd2, 72 h
Description: Antiplasmodial activity against asexual blood-stage Plasmodium falciparum Dd2 using 2% haematocrit and 0.2% parasitemia assessed as reduction in fluorescence measured after 72 hrs by Malaria SYBR Green I-based Fluorescence (MSF) assay

[19] = MRTlast in ICR-CD1 mouse liver at 40 mg/kg, po; assay type: ADME, organism-based
[20] = Tmax in ICR-CD1 mouse plasma at 40 mg/kg, po; assay type: ADME, organism-based
[21] = Mutagenicity in Salmonella typhimurium TA98 at 10 uM by Ames test; assay type: toxicity; conditions: salmonella enterica subsp. enterica serovar typhimurium
[22] = in vitro; conditions: human, liver microsomes
[23] = MRTlast in ICR-CD1 mouse plasma at 40 mg/kg, po; assay type: ADME, organism-based
[24] = test system: Plasmodium yoelii; experiment: Antimalarial activity against erythrocytic Plasmodium yoelii MRA-428 infected in CF1 mouse assessed as reduction in parasitemia at 25 mg/kg, po once daily for 4 days measured on day 5; assay type: functional; set-up: scale not given: the % may be the effect or the level left; conditions: time 4 day
[25] = test system: Plasmodium berghei; experiment: Anti-malarial activity against Luciferase-expressing Plasmodium berghei sporozoites inoculated in po dosed Albino C57BL/6 mouse malaria model assessed as elimination of parasites in blood by measuring bioluminescence signal measured after 72 hrs; assay type: functional, organism-based
[26] = test system: Plasmodium yoelii; experiment: Antimalarial activity against erythrocytic Plasmodium yoelii MRA-428 infected in CF1 mouse assessed as reduction in parasitemia at 80 mg/kg, po once daily for 4 days measured on day 5; assay type: functional; set-up: scale not given: the % may be the effect or the level left; conditions: time 4 day
[27] = Half life in ICR-CD1 mouse plasma at 40 mg/kg, po; assay type: ADME, organism-based
[28] = Tmax in ICR-CD1 mouse liver at 40 mg/kg, po; assay type: ADME, organism-based
[29] = AUCextrap (extrapolated from the last observed time point) in ICR-CD1 mouse liver at 40 mg/kg, po; assay type: ADME, organism-based; conditions: in vivo
[30] = AUCinf in ICR-CD1 mouse liver at 40 mg/kg, po; assay type: ADME, organism-based
[31] = test system: Plasmodium falciparum; experiment: Anti-plasmodial activity against Plasmodium falciparum 3D7 infected in erythrocytes assessed as parasite reduction ratio at 1.188 uM measured 22 to 28 days; assay type: functional; conditions: time 22-28 day
[32] = test system: MDR1 (human); experiment: Apparent permeability across basolateral to apical side in MDCK transfected with human MDR1 cells incubated for 1 hr by LC-MS analysis; conditions: dog, MDCK-MDR1
[33] = AUClast in ICR-CD1 mouse liver at 40 mg/kg, po; assay type: ADME, organism-based
[34] = test system: Plasmodium falciparum; experiment: Anti-plasmodial activity against Plasmodium falciparum 3D7 infected in erythrocytes assessed as parasite clearance time at 1.188 uM measured 22 to 28 days relative to initial population; assay type: functional; conditions: time 22-28 day
[35] = test system: Plasmodium yoelii; experiment: Antimalarial activity against erythrocytic Plasmodium yoelii MRA-428 infected in CF1 mouse assessed as reduction in parasitemia at 10 mg/kg, po once daily for 4 days measured on day 5; assay type: functional; set-up: scale not given: the % may be the effect or the level left; conditions: time 4 day
[36] = Half life in ICR-CD1 mouse liver at 40 mg/kg, po; assay type: ADME, organism-based
[37] = Cmax in ICR-CD1 mouse plasma at 40 mg/kg, po; assay type: ADME, organism-based
[38] = Metabolic stability in human liver microsomes assessed as half life measured up to 60 mins by LC/MS analysis; assay type: ADME, Microsome
[39] = Chemical stability of the compound assessed as half life in PBS buffer at pH 7.4; assay type: physicochemical
[40] = Chemical stability of the compound assessed as half life in acetate buffer at pH 4.5; assay type: physicochemical
[41] = test system: Plasmodium yoelii; experiment: Antimalarial activity against erythrocytic Plasmodium yoelii MRA-428 infected in CF1 mouse assessed as cured mouse at 25 mg/kg, po once daily for 4 days measured on day 28 day; assay type: functional, organism-based; conditions: time 4.0 day
[42] = test system: Plasmodium berghei; experiment: Anti-malarial activity against Luciferase-expressing Plasmodium berghei sporozoites inoculated in po dosed Albino C57BL/6 mouse malaria model assessed as elimination of parasites in liver by measuring bioluminescence signal measured after 48 hrs; assay type: functional, organism-based
[43] = test system: MDR1 (human); experiment: Apparent permeability across apical to basolateral side in MDCK transfected with human MDR1 cells incubated for 1 hr by LC-MS analysis; conditions: dog, MDCK-MDR1
[44] = AUClast in ICR-CD1 mouse plasma at 40 mg/kg, po; assay type: ADME, organism-based
[45] = AUCinf in ICR-CD1 mouse plasma at 40 mg/kg, po; assay type: ADME, organism-based; conditions: in vivo
[46] = test system: Plasmodium berghei; experiment: Anti-malarial activity against Luciferase-expressing Plasmodium berghei sporozoites inoculated in Albino C57BL/6 mouse malaria model assessed as increase in survival time at 40 mg/kg, po relative to control; assay type: functional
[47] = Mutagenicity in Salmonella typhimurium TA98 with S9 fraction at 10 uM by Ames test; assay type: toxicity, subcellular; conditions: salmonella enterica subsp. enterica serovar typhimurium, s9, 10 µM
[48] = Apparent oral clearance in ICR-CD1 mouse liver at 40 mg/kg, po; assay type: ADME, organism-based
[49] = as §1; assay type: toxicity, cell-based; conditions: human, HepG2 cells
[50] = test system: Plasmodium falciparum; experiment: microbe, parasite or virus in culture; conditions: D6, 72 h
Description: Antiplasmodial activity against asexual blood-stage Plasmodium falciparum D6 using 2% haematocrit and 0.2% parasitemia assessed as reduction in fluorescence measured after 72 hrs by Malaria SYBR Green I-based Fluorescence (MSF) assay

[51] = test system: Plasmodium yoelii; experiment: Antimalarial activity against erythrocytic Plasmodium yoelii MRA-428 infected in CF1 mouse assessed as reduction in parasitemia at 50 mg/kg, po once daily for 4 days measured on day 5; assay type: functional; set-up: scale not given: the % may be the effect or the level left; conditions: time 4 day
[52] = in vitro; conditions: human
Description: Selectivity index, ratio of IC50 for cytotoxicity against human HepG2 cells to IC50 for antiplasmodial activity against asexual blood-stage Plasmodium falciparum D6

[53] = test system: Plasmodium yoelii; experiment: Antimalarial activity against erythrocytic Plasmodium yoelii MRA-428 infected in CF1 mouse assessed as cured mouse at 10 mg/kg, po once daily for 4 days measured on day 28 day; assay type: functional, organism-based; conditions: time 4.0 day
[54] = test system: Plasmodium yoelii; experiment: Antimalarial activity against erythrocytic Plasmodium yoelii MRA-428 infected in CF1 mouse assessed as cured mouse at 50 mg/kg, po once daily for 4 days measured on day 28 day; assay type: functional, organism-based; conditions: time 4.0 day
[55] = test system: Plasmodium falciparum; experiment: Anti-plasmodial activity against Plasmodium falciparum 3D7 infected in erythrocytes assessed as parasite reduction ratio at 0.27 uM measured 22 to 28 days; assay type: functional; conditions: time 22-28 day
[56] = test system: Plasmodium falciparum; experiment: Anti-plasmodial activity against Plasmodium falciparum 3D7 infected in erythrocytes assessed as parasite clearance time at 0.27 uM measured 22 to 28 days relative to initial population; assay type: functional; conditions: time 22-28 day
[57] = test system: Plasmodium falciparum; experiment: Anti-plasmodial activity against Plasmodium falciparum 3D7 infected in erythrocytes assessed as Lag phase (time to observe the maximal killing effect of the drug) at 0.27 uM; assay type: functional

Voltage-gated inwardly rectifying potassium channel KCNH2, sequence (Q12809 whole entry): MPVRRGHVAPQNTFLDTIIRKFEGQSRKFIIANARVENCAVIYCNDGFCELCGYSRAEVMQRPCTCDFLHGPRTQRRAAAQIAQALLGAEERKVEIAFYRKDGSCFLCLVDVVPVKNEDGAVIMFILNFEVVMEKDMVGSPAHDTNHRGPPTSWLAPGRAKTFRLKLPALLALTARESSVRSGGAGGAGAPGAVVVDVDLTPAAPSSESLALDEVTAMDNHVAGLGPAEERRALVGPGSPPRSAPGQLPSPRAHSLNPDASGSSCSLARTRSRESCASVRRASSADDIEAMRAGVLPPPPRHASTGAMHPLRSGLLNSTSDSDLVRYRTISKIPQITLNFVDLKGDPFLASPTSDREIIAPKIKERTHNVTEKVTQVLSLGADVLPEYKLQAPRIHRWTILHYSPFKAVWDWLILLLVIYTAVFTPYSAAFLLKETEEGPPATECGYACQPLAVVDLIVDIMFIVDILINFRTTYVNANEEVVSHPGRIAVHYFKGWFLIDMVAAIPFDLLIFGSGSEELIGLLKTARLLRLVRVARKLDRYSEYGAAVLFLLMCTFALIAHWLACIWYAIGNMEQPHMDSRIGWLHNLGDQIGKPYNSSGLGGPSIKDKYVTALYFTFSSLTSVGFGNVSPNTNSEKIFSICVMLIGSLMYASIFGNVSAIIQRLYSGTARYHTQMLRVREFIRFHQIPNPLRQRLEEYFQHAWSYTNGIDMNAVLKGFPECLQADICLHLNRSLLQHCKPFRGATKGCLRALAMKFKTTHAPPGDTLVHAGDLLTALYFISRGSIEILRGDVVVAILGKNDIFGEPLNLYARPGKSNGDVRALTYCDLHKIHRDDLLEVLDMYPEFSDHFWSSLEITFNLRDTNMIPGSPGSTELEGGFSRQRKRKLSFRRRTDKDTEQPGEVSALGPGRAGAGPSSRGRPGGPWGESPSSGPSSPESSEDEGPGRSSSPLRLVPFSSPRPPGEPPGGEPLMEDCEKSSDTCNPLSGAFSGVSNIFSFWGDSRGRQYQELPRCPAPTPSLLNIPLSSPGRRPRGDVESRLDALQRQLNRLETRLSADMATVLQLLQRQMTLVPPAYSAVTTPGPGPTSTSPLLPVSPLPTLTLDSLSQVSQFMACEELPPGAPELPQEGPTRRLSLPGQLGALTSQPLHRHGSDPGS

In the case of `CCC1=C(CC)/C(=C/NC2CCCCC2)N=C1c1ccc(C)[nH]1`, the IC50 [1] is reported as 7.53 µM, the IC50 [2] is reported as 18.4 nM and the IC50 [3] is reported as 4.4 µM. The IC20 ([3]; human, cho) was 1900 nM, the Time [4] was 0 h and the Activity [5] was “Non-toxic”. The IC50 [6] was 13.9 nM, the Activity [7] was 97% and the half-life [8] was greater than 60 min. For the same molecule, the half-life [9] was no less than 200 min, the Activity [10] was “Non-toxic” and the Activity [11] was 72%. The IC50 [12] was 16.4 nM, the IC50 [13] was 14.1 nM and the “%AUCextra” value [14] was 0.83%. For the same molecule, the CL/F [15] was 18.7 mL/h/kg, the Activity [16] was “Active; Four Mouse Cured Out Of Four” and the microsomal CLint at 1 h [17] was 19.9 µL/min/mg. It also gave an IC50 [18] of 8.04 nM, an MRT last [19] of 31.6 h and a Tmax [20] of 30 h. For the same molecule, the Activity [21] was “Non-toxic”, the microsomal CLint at 1 h [22] was 23.6 µL/min/mg and the MRT last [23] was 31.5 h. The Activity [24] was 100%, the Activity [25] was “Dose-dependent-effect” and the Activity [26] was 100%. For the same molecule, the half-life [27] was 338 min, the Tmax [28] was 30 h and the “%AUCextra” value [29] was 0.5%. The AUC(0-inf) [30] was 1980 ng·h/mL, the “log(activity)” value [31] was 3.83 and the Papp B→A at 1 h [32] was 0.002 ×10⁻⁶ cm/s. The AUC(0-t) [33] was 1960 ng·h/mL, the T99.9% [34] was 39.5 h and the Activity [35] was 88.6%. For the same molecule, the half-life [36] was 304 min, the Cmax [37] was 1440 ng/mL and the half-life [38] was 58.7 min. The t1/2 [39] was 270 min, the half-life [40] was no less than 200 min and the Activity [41] was “Active; Four Mouse Cured Out Of Four”. The Activity [42] was “Dose-dependent-effect”, the Papp A→B at 1 h [43] was 0.013 ×10⁻⁶ cm/s and the AUC(0-t) [44] was 67600 ng·h/mL. The AUC [45] was 68123 ng·h/mL, the Survival [46] was 3 days and the Activity [47] was “Non-toxic”. The CL/F [48] was 10.8 mL/min/kg.

Molecule `CCC1=C(C)/C(=C/NC2CCCCCC2)N=C1c1ccc[nH]1` has an IC50 at 48 h [49] of 19.2 µM, an IC50 [2] of 37.6 nM and a half-life [8] of 10.1 min. The IC50 [50] was 62.2 nM, the Activity [16] was “Active; Two Mouse Cured Out Of Four” and the Activity [51] was 100%. It also gave an IC50 [18] of 55.5 nM, an Activity [24] of 100% and a selectivity ratio [52] of 309. The Activity [25] was “inactive”, the Activity [26] was 100% and the Activity [53] was “Not active; None Of The Mouse Cured Out Of Four Tested”. For the same molecule, the Activity [35] was 100%, the half-life [38] was 17.7 min and the Activity [54] was “Active; Four Mouse Cured Out Of Four”. The Activity [41] was “Active; Four Mouse Cured Out Of Four” and the Activity [42] was “inactive”.

In the case of `CCc1nc(N)nc(N)c1-c1ccc(Cl)cc1` [PYRIMETHAMINE], the “log(activity)” value [55] is reported as 3.49, the T99.9% [56] is reported as 54 h and the Time [57] is reported as 24 h.
